Key:
Format in all cases: cell-based
[1] = RSV HEP2-CC50-384-V2 (per Ex. V); details: human
[2] = test system: Human Rhinovirus 14 (HRV14) in H1-HeLa cells; experiment: H1-HeLa HRV-CTG EC50, HRV14 (Example Z); details: Rhinovirus B, HRV14, 96 h, MOI 1.0, 4 days, Celltiter-Glo, read-out: HRV14 HELA EC50 (nM) (per Ex. Z)
Source text: (§1) H1-Hela cell line (ATCC, Manassas, VA, Cat #CRL-1958) was maintained in Dulbecco's […] (DMEM) (Corning, New York, NY, Cat #15-018CM) supplemented with 10% fetal bovine serum (FBS) (Hyclone, Logan, UT, Cat #SH30071-03), and 1× Penicillin-Streptomycin-L-Glutamine (Coming, New York, NY, Cat #30-009-C1). Cells were passaged 2 times per week to maintain sub-confluent densities and were used for experiments at passage 5-30. The Human Rhinovirus 1B (HRV1B) (ATCC, Manassas, VA, Cat #VR-1645), Human Rhinovirus 14 (HRV14) (ATCC, Manassas, VA, Cat #VR-284), and Human Rhinovirus 16 (HRV16) (ATCC, Manassas, VA, Cat #BR-283) was obtained through ATCC. Viral infection was monitored by determining viability of H1-HeLa cells as described below.
(§2) Test molecules are prepared in 100% DMSO in 384-well polypropylene plates (Greiner, Monroe, NC, Cat #784201) with 8 compounds per plate in grouped replicates of 4 at 10 serially diluted concentrations (1:3). The serially diluted compounds were transferred to low dead volume Echo plates (Labcyte, Sunnyvale, CA, Cat #LP-0200).
(§3) The test compounds were spotted to 384-well assay plates (Greiner, Monroe, NC, Cat #781091) at 200 nL per well using an Echo acoustic dispenser (Labcyte, Sunnyvale, CA). H1-HeLa cells were harvested and suspended in DMEM (supplemented with 2% FBS and 1× Penicillin-Streptomycin-L-Glutamine) and seeded to the pre-spotted assay plates at 5,000 cells per well in 30 μL. HRV1B, HRV14, and HRV16 was diluted in DMEM (supplemented with 2% FBS and 1× Penicillin-Streptomycin-L-Glutamine) at 97.1 million Infectious Units (IU) per mL, 151 million IU per mL and 221 million IU per mL respectively. 10 μL of virus per well was added to the assay plates containing cells and compounds, for an MOI of 0.5, 1.0, and 0.25 respectively. The assay plates were incubated for 4 days at 37° C. and 5% CO2. At the end of incubation, Celltiter-Glo (Promega, Madison, WI, Cat #G7573) was prepared. The assay plates and Celltiter-Glo reagent were equilibrated to room temperature for at least 15 minutes. 40 μL per well of Celltiter-Glo reagent was added and the plates were incubated at room temperature for 15 minutes before reading the luminescence signal on an EnVision multimode plate reader (Perkin Elmer, Waltham, MA). Rupintrivir was used as positive control and DMSO was used as negative control. Values were normalized to the positive and negative controls (as 0% and 100% replication, respectively) and data was fitted using non-linear regression analysis by Gilead's dose response tool. The EC50 value for each compound was defined as the concentration reducing viral replication by 50%.

[3] = test system: Respiratory syncytial virus recombinant with luciferase (RSV-Luc5) in HEp-2 cells; experiment: HEp-2 RSV-Luc5 384-well assay (EC50 RSVFLUC Hep2-384 v2, Example V); details: human respiratory syncytial virus, HEp-2, 72 h, read-out: RSV Hep-2 FLuc EC50 (v2) (nM) (per Ex. V)
How it was run: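 HEp-2 cells (4,000/well) infected with RSV-Luc5 at MOI 0.5 in DMEM/10% FBS with compound, 10-point 1:3 dilutions, 3 days at 37 °C. Replication read by One-Glo luminescence, normalized to remdesivir (0%) and DMSO (100%). EC50 from non-linear regression as concentration giving 50% reduction.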

[4] = test system: Human Rhinovirus 1B (HRV1B) in H1-HeLa cells; experiment: H1-HeLa HRV-CTG EC50, HRV1B (Example Z); details: Rhinovirus A, 96 h, MOI 0.5, 4 days, Celltiter-Glo, read-out: HRV 1B HELA EC50 (nM) (per Ex. Z)
Source text: as §1, §2, §3

[5] = RSV NHBE CC50 384 V2 (per Ex. U); details: human
[6] = test system: Human Rhinovirus 16 (HRV16) in H1-HeLa cells; experiment: H1-HeLa HRV-CTG EC50, HRV16 (Example Z); details: Rhinovirus A, HRV16, 96 h, MOI 0.25, 4 days, Celltiter-Glo, read-out: HRV 16 HELA EC50 (nM) (per Ex. Z)
Source text: as §1, §2, §3

Compound | CC50 at 3 days [1] | EC50 [2] | EC50 [3] | EC50 [4] | CC50 at 3 days [5] | EC50 [6]
CCCCCCCCCCCCCCCCCCC[C@H](COP(=O)(O)OC[C@@]1(C#N)O[C@@H](c2ccc3c(N)ncnn23)[C@H](O)[C@@H]1O)OCc1ccc(C#N)c(OC(C)C)c1 [Compound 28, ((2R,3S,4R,5S)-5-(4-aminopyrrolo[2,1-f][1,2,4]triazin-7-yl)-2-cyano-3,4-dihydroxytetrahydrofuran-2-yl)methyl ((R)-2-((4-cyano-3-isopropoxybenzyl)oxy)henicosyl) hydrogen phosphate] | 30600 nM | 47 nM | 353 nM | 36 nM | 7560 nM | 51 nM
CCCCCCCCCCCCCCCCCCC[C@H](COP(=O)(O)OC[C@@]1(C#N)O[C@@H](c2ccc3c(N)ncnn23)[C@H](O)[C@@H]1O)OCc1ccc(-n2cncn2)c(C#N)c1 [Compound 30, ((2R,3S,4R)-5-(4-aminopyrrolo[2,1-f][1,2,4]triazin-7-yl)-2-cyano-3,4-dihydroxytetrahydrofuran-2-yl)methyl ((R)-2-((3-cyano-4-(1H-1,2,4-triazol-1-yl)benzyl)oxy)henicosyl) hydrogen phosphate] | 33100 nM | 12 nM | 115 nM | 7 nM | 1720 nM | 11 nM
CCCCCCCCCCCCCCCCCCCC[C@H](COP(=O)(O)OC[C@@]1(C#N)O[C@@H](c2ccc3c(N)ncnn23)[C@H](O)[C@@H]1O)OCc1cc(F)cc(C#N)c1 [Compound 34, ((2R,3S,4R)-5-(4-aminopyrrolo[2,1-f][1,2,4]triazin-7-yl)-2-cyano-3,4-dihydroxytetrahydrofuran-2-yl)methyl ((R)-2-((3-cyano-5-fluorobenzyl)oxy)docosyl) hydrogen phosphate] | > 43200 nM | 276 nM | 1890 nM | 281 nM | 7250 nM | 316 nM
CCCCCCCCCCCCCCCCC[C@H](COP(=O)(O)OC[C@@]1(C#N)O[C@@H](c2ccc3c(N)ncnn23)[C@H](O)[C@@H]1O)OCc1cc(F)cc(C#N)c1 [Compound 36, ((2R,3S,4R,5S)-5-(4-aminopyrrolo[2,1-f][1,2,4]triazin-7-yl)-2-cyano-3,4-dihydroxytetrahydrofuran-2-yl)methyl ((R)-2-((3-cyano-5-fluorobenzyl)oxy)nonadecyl) hydrogen phosphate] | > 50000 nM | 113 nM | 353 nM | 102 nM | 2740 nM | 112 nM
CCCCCCCCCCCCCCCCCC[C@@H](COP(=O)(O)OC[C@@]1(C#N)O[C@@H](c2ccc3c(N)ncnn23)[C@H](O)[C@@H]1O)OCc1cc(F)cc(C#N)c1 [Compound 37, ((2R,3S,4R)-5-(4-aminopyrrolo[2,1-f][1,2,4]triazin-7-yl)-2-cyano-3,4-dihydroxytetrahydrofuran-2-yl)methyl ((S)-2-((3-cyano-5-fluorobenzyl)oxy)icosyl) hydrogen phosphate] | > 38100 nM | 183 nM | 1240 nM | 332 nM | 3110 nM | 249 nM
CCCCCCCCCCCCCCCCCCC[C@H](COP(=O)(O)OC[C@@]1(C#N)O[C@@H](c2ccc3c(N)ncnn23)[C@H](O)[C@@H]1O)Oc1ccc(C#N)c(OC(C)C)c1 [Compound 38, ((2R,3S,4R,5S)-5-(4-aminopyrrolo[2,1-f][1,2,4]triazin-7-yl)-2-cyano-3,4-dihydroxytetrahydrofuran-2-yl)methyl ((R)-2-(4-cyano-3-isopropoxyphenoxy)henicosyl) hydrogen phosphate] | 35300 nM | 28 nM | 212 nM | 12 nM | 7990 nM | 29 nM
CCCCCCCCCCCCCCCCCCC[C@H](COP(=O)(O)OC[C@@]1(C#N)O[C@@H](c2ccc3c(N)ncnn23)[C@H](O)[C@@H]1O)Oc1cc(OC)c(C#N)c(OC)c1 [Compound 39, ((2R,3S,4R,5S)-5-(4-aminopyrrolo[2,1-f][1,2,4]triazin-7-yl)-2-cyano-3,4-dihydroxytetrahydrofuran-2-yl)methyl ((R)-2-(4-cyano-3,5-dimethoxyphenoxy)henicosyl) hydrogen phosphate] | > 41400 nM | 34 nM | 327 nM | 18 nM | 6460 nM | 35 nM
CCCCCCCCCCCCCCCCCCOCC(COc1cc(F)cc(C#N)c1)COP(=O)(O)OC[C@@]1(C#N)O[C@@H](c2ccc3c(N)ncnn23)[C@H](O)[C@@H]1O (stereo partly drawn) [Compound 43, ((2R,3S,4R,5S)-5-(4-aminopyrrolo[2,1-f][1,2,4]triazin-7-yl)-2-cyano-3,4-dihydroxytetrahydrofuran-2-yl)methyl (3-(3-cyano-5-fluorophenoxy)-2-((octadecyloxy)methyl)propyl) hydrogen phosphate] | > 30300 nM | 75 nM | 707 nM | 36 nM | 11900 nM | 53 nM
CCCCCCCCCCCCCCCCCCCC[C@H](COP(=O)(O)OC[C@@]1(C#N)O[C@@H](c2ccc3c(N)ncnn23)[C@H](O)[C@@H]1O)Oc1cccc(C#N)c1 [Compound 51, ((2R,3S,4R,5S)-5-(4-aminopyrrolo[2,1-f][1,2,4]triazin-7-yl)-2-cyano-3,4-dihydroxytetrahydrofuran-2-yl)methyl ((R)-2-(3-cyanophenoxy)docosyl) hydrogen phosphate] | > 46200 nM | 49 nM | 436 nM | 33 nM | 8330 nM | 34 nM
CCCCCCCCCCCCCCCCCOC[C@H](COP(=O)(O)OC[C@@]1(C#N)O[C@@H](c2ccc3c(N)ncnn23)[C@H](O)[C@@H]1O)OCc1cc(F)cc(C#N)c1 [Compound 53, ((2R,3S,4R,5S)-5-(4-aminopyrrolo[2,1-f][1,2,4]triazin-7-yl)-2-cyano-3,4-dihydroxytetrahydrofuran-2-yl)methyl ((R)-2-((3-cyano-5-fluorobenzyl)oxy)-3-(heptadecyloxy)propyl) hydrogen phosphate] | 32100 nM | 35 nM | 200 nM | 34 nM | 2820 nM | 35 nM
CCCCCCCCCCCCCCCCCCOC[C@H](COP(=O)(O)OC[C@@]1(C#N)O[C@@H](c2ccc3c(N)ncnn23)[C@H](O)[C@@H]1O)OCc1cccc(C#N)n1 [Compound 68, ((2R,3S,4R)-5-(4-aminopyrrolo[2,1-f][1,2,4]triazin-7-yl)-2-cyano-3,4-dihydroxytetrahydrofuran-2-yl)methyl ((R)-2-((6-cyanopyridin-2-yl)methoxy)-3-(octadecyloxy)propyl) hydrogen phosphate] | 42800 nM | 35 nM | 110 nM | 12 nM | 2060 nM | 20 nM

From patent US20250034182A1, “PHOSPHOLIPID COMPOUNDS AND METHODS OF MAKING AND USING THE SAME” (priority 2021, published 2025)
